From patent publication US9828351B2, “Enzyme interacting agents” (MONASH UNIVERSITY, priority 2014, dated 2017)

Experiments:
[1] = molecular target: T1, recombinant his tagged human SphK1 (Homo sapiens, UniProt Q9NYA1); assay: SphK1 activity assay (32P-labelled S1P production); assay type: biochemical; conditions: 10 μM compound; % of activity compared to control (DMSO vehicle only)
T1 construct: His tag; made in house; host or cells: insect cells (baculovirus system)
Procedure: (§1) The SphK assays employed, measure SphK activity through the production of ^32P-labelled S1P following the addition of exogenous Sph and [γ^32P] ATP.
(§2) Activities of SphK1 and SphK2 were determined using identical assay conditions with the exception that SphK1 assays used 3 ng/assay recombinant his tagged human SphK1 (made in the lab in a baculovirus system using insect cells), while SphK2 assays used 30 ng/assay recombinant human SphK2 (purchased by Johnson and Johnson).
(§3) Compounds were dissolved in DMSO at 10 mM, the mixture was vortexed (and sonicated if necessary). Stock solutions were kept at 4° C. until used.
(§4) Aliquots were made containing 100 μM drug compound. These aliquots were then diluted in assay buffer: 100 mM tris/HCl pH 7.4, 100 mM NaCl, 1 mM sodium orthovanadate, 10 mM NaF to make up a 10 μM solution.
(§5) Recombinant enzyme was diluted in assay buffer (above) to make up a final concentration of 0.03 ng/μL (SphK1) or 0.33 ng/μL (SphK2).
(§6) 40 μL recombinant enzyme was added to an Eppendorf® Safe-Lock® microcentrifuge tube. This was followed by the addition of drug compound from prepared aliquots, before adding ATP, [γ^32P]ATP and Sph. Note: ATP stock is made up in 1M Tris pH 7.4 and 200 mM MgCl2. This allows ATP to complex with Mg and be available as a substrate.
(§7) The rest of the reaction mixture was then added to the enzyme sample (Table 1). All reactions were performed as triplicates.
(§8) Reaction mixture was prepared with sufficient volume to assay all of the required samples. To do this, each of the volumes shown was multiplied by n+1, where n is the number of samples to be assayed. Assay buffer used is made up of 100 mM tris/HCl pH 7.4, 100 mM NaCl, 1 mM sodium orthovanadate and 10 mM NaF.
(§9) The mixture was then incubated at 37° C. for 20 min (SphK1)/45 min (SphK2).
(§10) To the 100 μL assay mixture, add 270 μl of chloroform/methanol/conc. HCl (100:200:1).
(§11) 20 μL of 5 M KCl was then added to the assay mixture.
(§12) 70 μL of chloroform was added to create phase separation. The solution was vortexed to mix well.
(§13) The solution was then centrifuged for 5 min at 13,000×g to fully separate the phases.
(§14) The upper aqueous/methanol phase was separated by aspiration.
(§15) 50 μL of the remaining lower chloroform phase […] was applied onto the TLC plate by repeatedly spotting a few microliters of liquid (<5 mm diameter circle) between each sample spot with the pipette tip. The liquid was then allowed to absorb into the plate before drying with a stream of air.
(§16) The TLC plate was developed in a glass TLC developing tank with 1-butanol/ethanol/glacial acetic acid/H2O (8:2:1:2) until the mobile phase is within 1 cm of the top of the TLC plate.
(§17) The TLC plate was then exposed to a storage phosphor screen overnight. Storage phosphor screens work by capturing images produced by ionising radiation (e.g. ^32P). The phosphorimager stimulates the screen which uses lasers to convert the latent signal to light. Light is proportional to the amount of radioactivity in the sample. The image is then quantified using standard quantification software (ImageQuant™). Whatman paper with the assay mixture dilutions, was included to assist quantification of the phosphor signal.
(§18) Once the storage phosphor screen was read using the phosphorimager, S1P spots, which have an Rf of 0.7 with the mobile phase employed, were quantified.
(§19) The S1P spot intensity can be converted to the amount of phosphate transferred/min/mg protein.

[2] = tested on: MCF7 breast cancer cells; assay: Anticancer activity in MCF7 cell lines, MTS assay; assay type: cell-based; conditions: Homo sapiens, concentration required to inhibit cell proliferation by 50%, 72 hrs, read-out: MCF-7 IC50
Procedure: Measurement of Anticancer Activity in MCF7 Cell Lines
MCF7 breast cancer cells were treated with the test compounds and incubated at 37° C., 5% CO2 in air for 72 hrs. The MTS assay was conducted with addition of prepared MTS solution followed by 2 hr incubation, an OD reading and the raw data recorded. The data was managed in tabular form, values adjusted for vehicle control, and the adjusted values graphed as a sigmoidal curve and the EC50 value calculated.

[3] = molecular target: T2, recombinant human SphK2 (Homo sapiens, UniProt Q9NRA0); assay: SphK2 activity assay (32P-labelled S1P production); assay type: biochemical; conditions: 10 μM compound; % of activity compared to control (DMSO vehicle only); read-out: SphK2% actvity at 10 μm
T2 construct: purchased Johnson and Johnson
T2 sequence (Q9NRA0 1-654): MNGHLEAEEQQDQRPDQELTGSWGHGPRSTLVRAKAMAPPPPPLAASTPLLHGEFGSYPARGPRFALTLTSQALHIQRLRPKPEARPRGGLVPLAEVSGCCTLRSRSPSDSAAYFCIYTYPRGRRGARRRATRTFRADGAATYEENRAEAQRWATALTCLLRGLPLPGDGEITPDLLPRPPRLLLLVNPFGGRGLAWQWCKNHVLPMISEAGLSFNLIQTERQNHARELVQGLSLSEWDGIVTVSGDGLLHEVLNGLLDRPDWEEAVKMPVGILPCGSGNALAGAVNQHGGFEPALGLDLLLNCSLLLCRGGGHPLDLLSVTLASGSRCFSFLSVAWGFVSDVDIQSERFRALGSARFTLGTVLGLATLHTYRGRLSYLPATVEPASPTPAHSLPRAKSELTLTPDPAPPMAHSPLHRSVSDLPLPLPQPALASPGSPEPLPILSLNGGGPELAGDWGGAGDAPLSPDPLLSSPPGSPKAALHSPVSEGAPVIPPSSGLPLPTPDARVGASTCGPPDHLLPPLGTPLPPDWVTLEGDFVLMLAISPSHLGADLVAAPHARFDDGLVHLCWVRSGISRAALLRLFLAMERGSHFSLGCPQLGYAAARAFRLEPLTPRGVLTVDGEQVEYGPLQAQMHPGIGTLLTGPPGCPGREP
Procedure: as §1, §2, §3, §4, §5, §6, §7, §8, §9, §10, §11, §12, §13, §14, §15, §16, §17, §18, §19

T1 sequence (Q9NYA1 whole entry): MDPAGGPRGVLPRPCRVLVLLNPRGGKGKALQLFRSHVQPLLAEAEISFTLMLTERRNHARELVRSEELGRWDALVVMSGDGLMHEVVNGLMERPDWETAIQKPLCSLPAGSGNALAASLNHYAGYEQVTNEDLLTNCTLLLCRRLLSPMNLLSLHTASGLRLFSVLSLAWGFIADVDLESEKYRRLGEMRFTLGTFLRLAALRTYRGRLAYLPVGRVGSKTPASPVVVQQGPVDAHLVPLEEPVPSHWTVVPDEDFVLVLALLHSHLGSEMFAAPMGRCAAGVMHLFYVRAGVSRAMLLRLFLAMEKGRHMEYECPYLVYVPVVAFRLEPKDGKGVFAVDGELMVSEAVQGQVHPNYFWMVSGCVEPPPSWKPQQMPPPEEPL

activity at 10 µM [1]: 50 to 80%
IC50 [2]: 10 to 100 µM
remaining activity at 10 µM [3]: 80 to 100%
Structure (SMILES): Oc1ccc(Nc2nc(-c3ccc(Cl)cc3)cs2)cc1 [SKI-II, reference compound]
